Holding throughout (format): in vivo
Data set [1] can be described thus: Bioavailability Test (rat pharmacokinetics). Conditions: for F: PO 30 mg/kg vs IV 3 mg/kg; for Vd: read-out: Vdss. Here is the method:
Oral bioavailability of compounds of Formulae (Ie), (Ih), (Ik), and (Ir), or a pharmaceutically acceptable salt of any of the foregoing, were evaluated in fasted male Sprague-Dawley (SD) rats weighing 200-225g. Compounds were dosed at 3 mg/kg (IV) and 30 mg/kg (PO). Unless otherwise noted, compounds were dissolved in 0.9% saline for IV dosing and 100% sterile water for PO dosing. Pharmacokinetic parameters were determined using Phoenix WinNonlin (v7.0). […]

For data set [2], the system named is male Sprague-Dawley rats. The experiment in a line: UVB Inflammatory Pain Test (thermal hyperalgesia). The conditions noted are these: rat, oral; for paw withdrawal latency, 1 h: 1 h after dosing; for paw withdrawal latency, 2 h: 2 h after dosing; for paw withdrawal latency, 4 h: 4 h after dosing. Here is the method: UVB irradiation to the surface of the hind paw was used to induce cutaneous inflammatory pain in non-fasted male Sprague-Dawley rats weighing 175-300 g. On Day −3, animals were restrained and the plantar surface of the left hind paw was exposed to 350 mJoules/cm^2 of UVB irradiation using a narrow band UVB light source (Daavlin®, Bryan, Ohio). Following UVB irradiation, animals were returned to their home cage. Thermal hyperalgesia was assessed prior to dosing and approximately 1, 2, and 4 hours after dosing on Day 0 using a radiant heat plantar test apparatus (IITC Life Sciences©; Woodland Hills, Calif.). Animals were placed in individual acrylic chambers on a glass platform warmed to 30±2° C. and allowed to acclimate to their surroundings for a minimum of 15 minutes before testing. The stimulus was presented to the plantar surface and the timer was activated. The stimulus intensity was set such that pre-injury paw withdrawal latencies were approximately 12-18 seconds. Paw withdrawal latency values were recorded at the first observed nocifensive behavior (paw withdrawal, flinching, biting and/or licking). Three paw withdrawal latencies were measured for each hind paw per time point. The mean of the 3 values was taken as the paw withdrawal latency for that time point. A maximum cutoff latency of 30 seconds was used to prevent injury to the animal. The mean and standard error of the mean (SEM) were determined for each paw for each treatment group at each time point. Test compounds were administered orally at concentrations of 3, 10, 30 or 100 mg/kg; celecoxib was administered orally at a concentration of 30 mg/kg; and acetaminophen was administered orally at a concentration of 300 mg/kg. The control group received the vehicle (sterile water). In Table 4, ‘A’ designates >8 seconds of paw withdrawal latency, ‘B’ designates >6 and <8 seconds of paw withdrawal latency, and ‘C’ designates <6 seconds of paw withdrawal latency.
The results provided in Table 4 are for oral administration in rats. […] Furthermore, while acetaminophen was dosed at 300 mg/kg, compounds of Formulae (Ie), (Ih) and (Ik), or a pharmaceutically acceptable salt of any of the foregoing, were dosed at 3 mg/kg, 10 mg/kg and 100 mg/kg.

The subject of data set [3] is male Sprague-Dawley rats. Nature of the data set: Formalin Paw Test, rat, oral. Conditions: 30 mg/kg; for Early Phase, seconds of paw licking: early/acute phase (0-10 minutes); for Late Phase, seconds of paw licking: late/tonic phase (10-35 minutes). As to the method:
One test compound or the vehicle was administered to each rat or mouse in each test group (8 rats or mice per group). Non-fasted male Sprague-Dawley rats weighing 200-225 g or non-fasted male ICR mice weighing 23±3 g were used. […] Responses were measured every 5 minutes after the formalin injection for 35 minutes. The results in Table 2 are for oral administration in rat and the results in Table 3 are for intraperitoneal administration in mouse. In Tables 2 and 3, 'A' designates <70 seconds of paw licking, 'B' designates >70 and <165 seconds of paw licking, and 'C' designates >165 seconds of paw licking.

Data set [4] relates to male Sprague-Dawley rats. The experiment in a line: Spinal Nerve Ligation (SNL) Neuropathic Pain Test. The conditions noted are these: rat, oral, 100 mg/kg. Here is the method:
Neuropathy was induced in non-fasted male Sprague-Dawley rats weighing 75-100 g by surgically ligating the 4th and 5th lumbar spinal nerves (L4 and L5), a procedure also known as spinal nerve ligation (SNL). Animals were placed in individual acrylic chambers on a metal mesh surface and allowed to acclimate to their surroundings for a minimum of 15 minutes before testing. Mechanical sensitivity was assessed using 8 Semmes-Weinstein filaments (Stoelting©; Wood Dale, Ill., USA) with varying stiffness (0.4, 0.6, 1.0, 2.0, 4.0, 6.0, 8.0, and 15 g) according to an up-down method to determine 50% response thresholds. Each filament was presented perpendicular to the plantar surface with sufficient force to cause slight buckling against the paw and held for approximately 6 seconds or until a positive response is noted (paw sharply withdrawn). Testing was initiated with the 2.0 g filament. In the absence of a paw withdrawal response, the next stronger stimulus was presented. In the event of paw withdrawal, the next weaker stimulus was used. This process was repeated until 4 responses after the initial change in response (no response to positive response or positive response to no response) were obtained. […] The 50% response threshold was calculated using the formula: 50% response threshold (g)=(10^(Xf+kδ))/10,000;
Xf=value (in log units) of the final von Frey filament used;
k=tabular value for the pattern of positive/negative responses (See Chaplan, et al. “Quantitative Assessment of Tactile Allodynia in the Rat Paw” J. Neurosci. Meth. 53.1 (1994): 56-63);
[…] =mean difference (in log units) between stimuli.
The mean and standard error of the mean (SEM) were determined for each paw for each treatment group at each time point. Thresholds were determined prior to surgery and again 14 days later. After 14 days, test or control compounds were administered and thresholds were again determined 1, 2, and 4 hours after compound administration. Median response thresholds in compound-treated animals were compared to those in vehicle treated animals to determine anti-allodynic efficacy of test and control compounds. Test compounds were administered orally at concentrations of 10, 30 or 100 mg/kg and gabapentin was administered orally at a concentration of 100 mg/kg. The control group received the vehicle (sterile water). In Table 7, ‘A’ designates a 50% threshold of ≥8 grams, ‘B’ designates a 50% threshold of ≥6 and <8 grams, and ‘C’ designates a 50% threshold of <6 grams.
The results provided in Table 7 are for oral administration in rats.

Setting [5] is: male, Sprague-Dawley, in vivo, IV 3 mg/kg, 0.9% saline.
Where [6] appears, read: male, Sprague-Dawley, in vivo, PO 30 mg/kg, sterile water.
The mark [7] stands for this setting: male, Sprague-Dawley, in vivo, IV 3 mg/kg, DMSO, PEG400, and 30% HPβCD (5/20/75).
Setting [8] is: male, Sprague-Dawley, in vivo, PO 30 mg/kg, PEG400, PVP, Tween 80, 0.5% CMC in water (9/0.5/0.5/90).

Molecules are shown by their SMILES. Where a name gives a salt, the structure may show the parent alone. Read-outs that look alike come from different tables or passages of the source.

Regarding `Cl.O=C(O)CNC12CC(C(F)(F)F)(C1)C2` [Compound 6, (3-(trifluoromethyl)bicyclo[1.1.1]pentan-1-yl)glycine hydrochloride], the F in data set [1] is recorded as 134%. For the same compound, in data set [1] (setting [5]), the AUC(0-inf) (as a rule, the area under the concentration-time curve extrapolated to infinity) is 1.8 µM·h; the clearance (as a rule, the rate of elimination divided by the concentration) was found to be 121 mL/min/kg; the half-life (in general, the time in which the quantity being followed falls by half) was 0.15 h; the Vd was 0.79 L/kg. Also, in data set [1] (setting [6]), the AUC(0-inf) was determined as 29 µM·h; the highest concentration (Cmax) (usually the highest concentration seen after dosing) stood at 32 µM; the time to peak (Tmax) (as a rule, the time at which the peak concentration occurs) turned out to be 0.22 h; the half-life is 1.6 h. For the same compound, in the data set on male Sprague-Dawley rats [2] (3 mg/kg), the “paw withdrawal latency, 1 h” value was “C (<6 seconds of paw withdrawal latency)”; the “paw withdrawal latency, 2 h” value is “B (>6 and <8 seconds of paw withdrawal latency)”; the “paw withdrawal latency, 4 h” value is “A (>8 seconds of paw withdrawal latency)”. In the data set on male Sprague-Dawley rats [2] (10 mg/kg), the “paw withdrawal latency, 1 h” value was “B (>6 and <8 seconds of paw withdrawal latency)”; the “paw withdrawal latency, 2 h” value was “B (>6 and <8 seconds of paw withdrawal latency)”; the “paw withdrawal latency, 4 h” value is “B (>6 and <8 seconds of paw withdrawal latency)”. For the same compound, in the data set on male Sprague-Dawley rats [2] (30 mg/kg), the “paw withdrawal latency, 1 h” value is listed as “A (>8 seconds of paw withdrawal latency)”; the “paw withdrawal latency, 2 h” value is “B (>6 and <8 seconds of paw withdrawal latency)”; the “paw withdrawal latency, 4 h” value is “B (>6 and <8 seconds of paw withdrawal latency)”. In the data set on male Sprague-Dawley rats [2] (100 mg/kg), the “paw withdrawal latency, 1 h” value is given as “A (>8 seconds of paw withdrawal latency)”; the “paw withdrawal latency, 2 h” value is on record as “A (>8 seconds of paw withdrawal latency)”; the “paw withdrawal latency, 4 h” value was “B (>6 and <8 seconds of paw withdrawal latency)”. Further, in the data set with male Sprague-Dawley rats [3], the “Early Phase, seconds of paw licking” value is on record as “A (<70 seconds of paw licking)”; the “Late Phase, seconds of paw licking” value is “B (>70 and <165 seconds of paw licking)”.

In data set [1], `O=C(CO)NC12CC(C(F)(F)F)(C1)C2` [Compound 7, 2-Hydroxy-N-(3-(trifluoromethyl)bicyclo[1.1.1]pentan-1-yl)acetamide] displayed an F of 138%. Further, in data set [1] (setting [5]), the area under the curve AUC(0-inf) was 9 µM·h, the clearance was found to be 27 mL/min/kg, the half-life was 2.3 h and the Vd came out at 2.5 L/kg. Besides, in data set [1] (setting [6]), the AUC(0-inf) was 119 µM·h, the Cmax was 67 µM, the Tmax was 0.19 h and the half-life was 2.5 h. For the same compound, in the data set on male Sprague-Dawley rats [2] (3 mg/kg), the “paw withdrawal latency, 1 h” value is “B (>6 and <8 seconds of paw withdrawal latency)”; the “paw withdrawal latency, 2 h” value is “B (>6 and <8 seconds of paw withdrawal latency)”; the “paw withdrawal latency, 4 h” value was “B (>6 and <8 seconds of paw withdrawal latency)”. Besides, in the data set on male Sprague-Dawley rats [2] (10 mg/kg), the “paw withdrawal latency, 1 h” value is on record as “C (<6 seconds of paw withdrawal latency)”; the “paw withdrawal latency, 2 h” value is given as “C (<6 seconds of paw withdrawal latency)”; the “paw withdrawal latency, 4 h” value is “B (>6 and <8 seconds of paw withdrawal latency)”. Further, in the data set on male Sprague-Dawley rats [2] (30 mg/kg), the “paw withdrawal latency, 1 h” value was “B (>6 and <8 seconds of paw withdrawal latency)”; the “paw withdrawal latency, 2 h” value was “B (>6 and <8 seconds of paw withdrawal latency)”; the “paw withdrawal latency, 4 h” value was “B (>6 and <8 seconds of paw withdrawal latency)”. Further, in the data set with male Sprague-Dawley rats [2] (100 mg/kg), the “paw withdrawal latency, 1 h” value is recorded as “C (<6 seconds of paw withdrawal latency)”; the “paw withdrawal latency, 2 h” value is “C (<6 seconds of paw withdrawal latency)”; the “paw withdrawal latency, 4 h” value was “B (>6 and <8 seconds of paw withdrawal latency)”. Further, in the data set with male Sprague-Dawley rats [3], the “Early Phase, seconds of paw licking” value is “A (<70 seconds of paw licking)”; the “Late Phase, seconds of paw licking” value is “B (>70 and <165 seconds of paw licking)”.

`CC(F)(F)c1csc(C23CC(N)(C2)C3)n1` [Compound 25, 3-(4-(1,1-difluoroethyl)thiazol-2-yl)bicyclo[1.1.1]pentan-1-amine hydrochloride] showed a F in data set [1] (vehicles of footnote a) of 115%. In addition, in data set [1] (setting [7]), the AUC(0-inf) was found to be 13 µM·h, the clearance was 17 mL/min/kg, the half-life was 3.7 h and the Vd was determined as 3.2 L/kg. For the same compound, in data set [1] (setting [8]), the Cmax is 24 µM and the Tmax is 1.2 h. In addition, the AUC(0-t) in data set [1] (male, Sprague-Dawley, in vivo, PO 30 mg/kg, PEG400, PVP, Tween 80, 0.5% CMC in water (9/0.5/0.5/90), read-out: AUC24h) worked out at 144 µM·h. Besides, in the data set on male Sprague-Dawley rats [3], the “Early Phase, seconds of paw licking” value is listed as “A (<70 seconds of paw licking)” and the “Late Phase, seconds of paw licking” value was “A (<70 seconds of paw licking)”.

Turning to `NCC1(CC(=O)O)CCCCC1` [Gabapentin, reference compound], in the data set on male Sprague-Dawley rats [4] (1 h after administration), the “50% response threshold, 1 h” value was “B (a 50% threshold of ≥6 and <8 grams)”. The “50% response threshold, 2 h” value in the data set with male Sprague-Dawley rats [4] (2 h after administration) is “A (a 50% threshold of ≥8 grams)”. For the same compound, the “50% response threshold, 4 h” value in the data set with male Sprague-Dawley rats [4] (4 h after administration) is reported as “A (a 50% threshold of ≥8 grams)”.

For the origin of these results see patent US11242327B2, “Analgesic compounds” (RECURIUM IP HOLDINGS, LLC, priority 2017, dated 2022).
